Columns and labels:
[1] = system: mitochondrial fatty acid oxidation using palmitoyl CoA as substrate; assay: Palmitoyl CoA oxidation in isolated rat heart mitochondria; type: biochemical; details: 15 min at 30° C.
Experimental: (§1) Rat heart mitochodria were isolated by the method of Nedergard and Cannon (Methods in Enzymol. 55, 3, 1979).
(§2) Palmitoyl CoA oxidation—The Palmitoyl CoA oxidation was carried out in a total volume of 100 microliters containing the following agents: 110 mM KCl, 33 mM Tris buffer at pH 8, 2 mM KPi, 2 mM MgCl2, 0.1 mM EDTA, 14.7 microM defatted BSA, 0.5 mM malic acid, 13 mM carnitine, 1 mM ADP, 52 micrograms of mitochondrial protein, and 16 microM 1-C14 palmitoyl CoA (Sp. Activity 60 mCi/mmole; 20 microCi/ml, using 5 microliters per assay). The compounds of this invention were added in a DMSO solution at the following concentrations: 100 microM, 30 microM, and 3 microM. In each assay, a DMSO control was used. After 15 min at 30° C., the enzymatic reaction was centrifuged (20,000 g for 1 min), and 70 microliters of the supernatant was added to an activated reverse phase silicic acid column (approximately 0.5 ml of silicic acid). The column was eluted with 2 ml of water, and 0.5 ml of the eluent was used for scintillation counting to determine the amount of C^14 trapped as C^14 bicarbonate ion. The data are presented as % activity of control.

[2] = Metabolic stability in human liver S-9 fractions; type: in vitro ADME; details: for Liver S-9 stability factor: % parent remaining after 30 min in human liver S-9 divided by average % of ranolazine remaining (57%)
Experimental: Metabolic Stability: As a measure of metabolic stability the compounds of this invention were incubated with human liver S-9 microsomal fractions. After, 30 minutes at 37 C, the amount of parent drug remaining was determined using LC-mass spec. The response factors for each compound was determined by establishing a standard curve and using an internal standard during the analysis of the samples. An average of five experiments for percentage of ranolazine remaining at the 30 minute time point is 57%. The compounds of this invention were assayed as described in the protocol below and the percentage of parent remaining was divided by the average % of ranolazine remaining (57%) affording a metabolic stability factor. A compound with a stability number greater than 1.2 has a better stability than ranolazine in the liver S-9 assay. A compound with a stability number between 1.2 and 0.8 has an equivalent stability in the liver S-9 assay.
The purpose of this experiment is to compare the percentages remaining for compounds of this invention with the percentage remaining for ranolazine after 30 minutes of incubation with human liver S9 fractions.
The following reagents were used; Potassium phosphate, 0.5M […]. (incubation buffer), kept at room temperature; 0.05M MgCl2 kept at 4° C.; β-Nicotinamide adenine dinucleotide phosphate, tetrasodium salt, reduced form (NADPH), 0.02M solution in water (˜16.6 mg/mL) from Sigma Lot # 79H7044 prepared on day of use. 1 mM of ranolazine or Compounds 7, 9, and 10-13 in ACN further diluted to obtain 100 μM in 10% ACN; Human S9 stock: 20 mg/mL from Gentest Lot 3.
Incubation mixtures were prepared as follows:
Combine all components with incubation buffer and re-pipette 200 μL/tube+25 μL of the compound being tested along with 25 μL of S-9.
After 5 min of pre-incubation at 37° C., at 0 and 30 min after starting the reaction, a 50 μl aliquot of the incubation mixture was removed and added to 100 μL of 9:1 acetonitrile:methanol containing the internal standard.
The mixture was centrifuged and a 100 μL aliquot of the supernatant was diluted in 1 mL of solvent C (0.1% Formic Acid in water). Then samples were analyzed for change between the ratio of compound to internal standard at time zero and 30 minutes by LC/MS (injected 10 μL).
Samples were analyzed for the starting compounds and potential metabolite/s by LC/MS using an internal standard on a Micromass platform mass spec with a Keystone Inc. BDS ODS-C18 column with a flow rate of 0.25 ml/min.

[3] = system: mitochondrial fatty acid oxidation using palmitoyl carnitine as substrate; assay: Palmitoyl carnitine oxidation in isolated rat heart mitochondria; type: biochemical; details: 15 min at 30° C.
Experimental: as §1
as §2, with “Carnitine Oxidation—The” for “CoA oxidation—The”, “carnitine” for “CoA”, “0.1 mg/ml of” for “14.7 microM”, “3” for “13 mM carnitine, 1”, “43” for “16”

Cc1cccc(C)c1NC(=O)CN(C)CCN(C)CC(O)Cc1cccc2ccccc12 (stereo not shown) [Compound 12]
Palmitoyl CoA oxidation activity, % of DMSO control ([1]; 100 μM compound): 26.5%

Cc1cccc(C)c1NC(=O)CN(C)CCCN(C)CC(O)Cc1ccc2c(c1)OCO2 (stereo not shown) [Compound 22]
Liver S-9 stability factor [2]: 1.58
Palmitoyl CoA oxidation activity, % of DMSO control ([1]; 100 μM compound): 12.5%
Palmitoyl carnitine oxidation remaining, % activity of DMSO control ([3]; 100 μM compound): 97%

COc1ccccc1CC(O)CN(C)CCN(C)CC(=O)Nc1c(C)cccc1C (stereo not shown) [Compound 11]
Palmitoyl CoA oxidation activity, % of DMSO control ([1]; 100 μM compound): 8%

CCN(CCN(CC)CC(O)c1ccccc1Cl)CC(=O)Nc1c(C)cccc1C (stereo not shown) [Compound 17]
Liver S-9 stability factor [2]: 0.01
Palmitoyl CoA oxidation activity, % of DMSO control ([1]; 100 μM compound): 34.3%

Cc1cccc(C)c1NC(=O)CN(C)CCN(C)CC(O)COc1c(Cl)cccc1Cl (stereo not shown) [Compound 10]
Palmitoyl CoA oxidation activity, % of DMSO control ([1]; 100 μM compound): 23%

Cc1cccc(C)c1NC(=O)CN(C)CCN(C)CC(O)Cc1ccc2c(c1)OCO2 (stereo not shown) [Compound 20]
Liver S-9 stability factor [2]: 1.59
Palmitoyl carnitine oxidation remaining, % activity of DMSO control ([3]; 100 μM compound): 98.7%

CCN(CCN(CC)CC(O)Cc1ccc2c(c1)OCO2)CC(=O)Nc1c(C)cccc1C (stereo not shown) [Compound 19]
Palmitoyl CoA oxidation activity, % of DMSO control ([1]; 100 μM compound): 26%
Palmitoyl carnitine oxidation remaining, % activity of DMSO control ([3]; 100 μM compound): 97.1%

CCN(CCN(CC)CC(O)COc1ccccc1OC)CC(=O)Nc1c(C)cccc1C (stereo not shown) [Compound 13]
Palmitoyl CoA oxidation activity, % of DMSO control ([1]; 100 μM compound): 67.8%

COc1ccccc1OCC(O)CN1CCN(CC(=O)Nc2c(C)cccc2C)CC1 (racemic) [Ranolazine, (±)-N-(2,6-dimethylphenyl)-4-[2-hydroxy-3-(2-methoxyphenoxy)-propyl]-1-piperazineacetamide, reference compound]
Liver S-9 stability factor [2]: 1.0
percentage of parent drug remaining at the 30 minute time point ([2]; human liver S-9, 30 minutes at 37 C, 10 μM, average of five experiments): 57%
Palmitoyl CoA oxidation activity, % of DMSO control ([1]; 30 μM compound): 90%
Palmitoyl CoA oxidation activity, % of DMSO control ([1]; 100 μM compound): 75%
Palmitoyl carnitine oxidation remaining, % activity of DMSO control ([3]; 30 μM compound): 98%
Palmitoyl carnitine oxidation remaining, % activity of DMSO control ([3]; 100 μM compound): 63%

CCN(CCN(CC)CC(O)c1ccccc1F)CC(=O)Nc1c(C)cccc1C (stereo not shown) [Compound 18]
Palmitoyl CoA oxidation activity, % of DMSO control ([1]; 100 μM compound): 54.8%

Cc1cccc(C)c1NC(=O)CN(C)CCCN(C)CC(O)Cc1ccccc1 (stereo not shown) [Compound 21]
Liver S-9 stability factor [2]: 0.08
Palmitoyl carnitine oxidation remaining, % activity of DMSO control ([3]; 100 μM compound): 4.9%

CCN(CCN(CC)CC(O)COc1c(Cl)cccc1Cl)CC(=O)Nc1c(C)cccc1C (stereo not shown) [Compound 14]
Palmitoyl CoA oxidation activity, % of DMSO control ([1]; 100 μM compound): 97.1%

COc1ccccc1OCC(O)CN(C)CCN(C)CC(=O)Nc1c(C)cccc1C (stereo not shown) [Compound 9]
Palmitoyl CoA oxidation activity, % of DMSO control ([1]; 100 μM compound): 8.83%

Cc1cccc(C)c1NC(=O)CN(C)CCN(C)CC(O)COc1ccc2c(c1)OCO2 (stereo not shown) [Compound 7, 2-({2-[(3-(2H-benzo[d]1,3-dioxolen-5-yloxy)-2-hydroxypropyl)methylamino]ethyl}methylamino)-N-(2,6-dimethylphenyl)acetamide]
Liver S-9 stability factor [2]: 1.51
